{"source": "patent US12448399B2", "about": "“Cereblon-based KRAS degrading PROTACs and uses related thereto” (Arvinas Operations, Inc., priority 2023, dated 2025)"}
{"molecular_target": "T1, KRas-G12D (Homo sapiens, UniProt P01116, G12D)", "T1 construct": "insert the HiBiT tag onto the N-terminus of one or more of the endogenous KRas alleles; host or cells: AsPC-1 HiBiT-KRasG12D knock-in clone (one tagged allele, two untagged KRasG12D alleles)", "T1 sequence (P01116 1-188 isoform P01116-2 G12D)": "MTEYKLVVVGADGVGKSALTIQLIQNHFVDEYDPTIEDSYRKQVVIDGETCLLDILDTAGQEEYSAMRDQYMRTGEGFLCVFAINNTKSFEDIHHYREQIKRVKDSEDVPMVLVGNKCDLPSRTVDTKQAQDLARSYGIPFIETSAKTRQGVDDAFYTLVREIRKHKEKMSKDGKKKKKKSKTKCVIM", "assay": "HiBiT Degradation Assay (G12D), AsPC-1 HiBiT-KRasG12D cells, 24 hr", "assay_type": "cell-based", "conditions": "ASPC1, AsPC-1 cells, maximum degradation observed", "procedure": "(§1) AsPC-1 (CRL-1682) cells were purchased from ATCC and are homozygous for the G12D mutation in KRas. AsPC-1 cells were cultured in GIBCO RPMI-1640 (ThermoFisher Scientific, catalog #61870-036, with Glutamax, no HEPES, no Na Pyruvate) supplemented with 10% FBS (ThermoFisher Scientific, catalog #2060357) and 1× Penicillin-Streptomycin (ThermoFisher Scientific, catalog #15140122, 10000 U/ml, 100×). For degradation assays, 384 well plates were used. Alamar blue was purchased from ThermoFisher Scientific (A50101) and used according to manufacturer instructions. The Nano-Glo® HiBiT Lytic Detection System and Nano-Glo® HiBiT Blotting System were purchased from Promega (#N3050 and #N2410) and used according to manufacturer instructions.\n(§2) To create the AsPC-1 HiBiT-KRasG12D cell line, CRISPR-Cas9 was used to insert the HiBiT tag onto the N-terminus of one or more of the endogenous KRas alleles. See Schwinn, M. K. et al. (2018) CRISPR-mediated tagging of endogenous proteins with a luminescent peptide, ACS Chem. Biol. 13(2), 467-474. After knock-in of the tag, individual clones were isolated by single cell dilution and screened for HiBiT insertion by PCR. A clone was identified that contained the desired HiBiT-KRasG12D sequence at one allele while the remaining two KRasG12D alleles were untagged. This clone was used in further studies.\n(§3) AsPC-1 HiBiT-KRasG12D cells were plated at 9000 or 15,000 cells/well in a 384 well plate (Corning #3770). Compounds of the present disclosure and positive controls were diluted in the appropriate cell media and applied to the plated cells resulting in a final concentration titration of 10 μM to […] in 0.5% DMSO. Gambogic acid was used as a positive control for cytotoxicity and titrated from 10 μM to 78 nM. All assays were performed in triplicate. Cells were treated with compounds for 24 hr at 37° C. in an incubator containing 5% CO2. Following treatment, alamar blue was used to determine if any compounds led to a loss in cell viability after 24 hr. The 10× alamar blue reagent was added to a final concentration of 1× as recommended by the manufacturer and cells were returned to the incubator for 4 hr. Plates were then allowed to equilibrate to RT and fluorescence was measured using a Perkin-Elmer EnVision. After completion of the fluorescence read, the liquid from each well was removed and the cells were washed with PBS. The Nano-Glo® HiBiT detection reagent was prepared according to the manufacturer's instructions and added to each well after the PBS wash was removed. Following incubation at room temperature for 45 min, the luminescence was read using the ultra-sensitive luminescence aperture on the Envision instrument.\n(§4) Fluorescence values from the alamar blue treatment were normalized to the DMSO-only control for each compound titration. HiBiT luminescence was normalized to the DMSO-only control and the fractional HiBiT signal was plotted versus the log of the PROTAC concentration and fit to a 4-parameter dose-response model to obtain the concentration of the compound that leads to half maximal degradation (DC50) as well as the maximum degradation observed (Dmax, conventionally expressed as a percentage of control).", "units": {"Dmax": "%"}}
{"smiles": "CCc1cccc2cc(O)cc(-c3ncc4c(N5CC6CCC(C5)N6)nc(OC[C@]56CCCN5[C@@H](COC(=O)N5CCN(c7cccc8c7CN(C7CCC(=O)N(C)C7=O)C8=O)CC5)CC6)nc4c3F)c12", "note": "(stereo partly drawn) [Compound 54, [(3R,8R)-8-[[4-(3,8-diazabicyclo[3.2.1]octan-3-yl)-7-(8-ethyl-3-hydroxy-1-naphthyl)-8-fluoro-pyrido[4,3-d]pyrimidin-2-yl]oxymethyl]-1,2,3,5,6,7-hexahydropyrrolizin-3-yl]methyl4-[2-(1-methyl-2,6-dioxo-3-piperidyl)-1-oxo-isoindolin-4-yl]piperazine-1-carboxylate]", "Dmax": "≤ 25"}
{"molecular_target": "T1, KRas-G12D", "assay": "HiBiT Degradation Assay (G12D), AsPC-1 HiBiT-KRasG12D cells, 24 hr", "assay_type": "cell-based", "conditions": "AsPC-1 cells", "procedure": "as §1, §2, §3, §4", "units": {"DC50": "nM"}}
{"smiles": "CCc1cccc2cc(O)cc(-c3ncc4c(N5CC6CCC(C5)N6)nc(OC[C@]56CCCN5[C@@H](COC(=O)N5CCN(c7cccc8c7CN(C7CCC(=O)N(C)C7=O)C8=O)CC5)CC6)nc4c3F)c12", "note": "(stereo partly drawn) [Compound 54, [(3R,8R)-8-[[4-(3,8-diazabicyclo[3.2.1]octan-3-yl)-7-(8-ethyl-3-hydroxy-1-naphthyl)-8-fluoro-pyrido[4,3-d]pyrimidin-2-yl]oxymethyl]-1,2,3,5,6,7-hexahydropyrrolizin-3-yl]methyl4-[2-(1-methyl-2,6-dioxo-3-piperidyl)-1-oxo-isoindolin-4-yl]piperazine-1-carboxylate]", "DC50": "250 to 1000"}
{"smiles": "CCc1cccc2cc(O)cc(-c3ncc4c(N5CC6CCC(C5)N6)nc(OCCN5CCC(CC6CCN(CC7CCN(c8cccc9c8CN(C8CCC(=O)NC8=O)C9=O)CC7)CC6)CC5)nc4c3F)c12", "note": "(stereo not shown) [Compound 55, 3-[4-[4-[[4-[[1-[2-[4-(3,8-diazabicyclo[3.2.1]octan-3-yl)-7-(8-ethyl-3-hydroxy-1-naphthyl)-8-fluoro-pyrido[4,3-d]pyrimidin-2-yl]oxyethyl]-4-piperidyl]methyl]-1-piperidyl]methyl]-1-piperidyl]-1-oxo-isoindolin-2-yl]piperidine-2,6-dione]", "DC50": "< 5100"}
{"smiles": "CCc1cccc2cc(O)cc(-c3ncc4c(N5CC6CCC(C5)N6)nc(OCCN5CCC(CC6CCN(c7cccc8c7CN(C7CCC(=O)NC7=O)C8=O)CC6)CC5)nc4c3F)c12", "note": "(stereo not shown) [Compound 56, 3-[4-[4-[[1-[2-[4-(3,8-diazabicyclo[3.2.1]octan-3-yl)-7-(8-ethyl-3-hydroxy-1-naphthyl)-8-fluoro-pyrido[4,3-d]pyrimidin-2-yl]oxyethyl]-4-piperidyl]methyl]-1-piperidyl]-1-oxo-isoindolin-2-yl]piperidine-2,6-dione]", "DC50": "250 to 1000"}
{"smiles": "CCc1cccc2cc(O)cc(-c3ncc4c(N5CC6CCC(C5)N6)nc(OCCN5CCC(CC6CCN(CC7CCN(c8cccc9c8C(=O)N(C8CCC(=O)NC8=O)C9=O)CC7)CC6)CC5)nc4c3F)c12", "note": "(stereo not shown) [Compound 57, 4-[4-[[4-[[1-[2-[4-(3,8-diazabicyclo[3.2.1]octan-3-yl)-7-(8-ethyl-3-hydroxy-1-naphthyl)-8-fluoro-pyrido[4,3-d]pyrimidin-2-yl]oxyethyl]-4-piperidyl]methyl]-1-piperidyl]methyl]-1-piperidyl]-2-(2,6-dioxo-3-piperidyl)isoindoline-1,3-dione]", "DC50": "100 to 5250"}
{"smiles": "CCc1cccc2cc(O)cc(-c3ncc4c(N5CC6CCC(C5)N6)nc(OC[C@@]56CCCN5[C@H](COC(=O)N5CCN(c7ccc8c(c7)CN(C7CCC(=O)NC7=O)C8=O)CC5)CC6)nc4c3F)c12", "note": "(stereo partly drawn) [Compound 58, [(3S,8S)-8-[[4-(3,8-diazabicyclo[3.2.1]octan-3-yl)-7-(8-ethyl-3-hydroxy-1-naphthyl)-8-fluoro-pyrido[4,3-d]pyrimidin-2-yl]oxymethyl]-1,2,3,5,6,7-hexahydropyrrolizin-3-yl]methyl 4-[2-(2,6-dioxo-3-piperidyl)-1-oxo-isoindolin-5-yl]piperazine-1-carboxylate]", "DC50": "< 5100"}
{"smiles": "CCc1cccc2cc(O)cc(-c3ncc4c(N5CC6CCC(C5)N6)nc(OC[C@]56CCCN5[C@@H](COC(=O)N5CCN(c7ccc8c(c7)CN(C7CCC(=O)NC7=O)C8=O)CC5)CC6)nc4c3F)c12", "note": "(stereo partly drawn) [Compound 59, [(3R,8R)-8-[[4-(3,8-diazabicyclo[3.2.1]octan-3-yl)-7-(8-ethyl-3-hydroxy-1-naphthyl)-8-fluoro-pyrido[4,3-d]pyrimidin-2-yl]oxymethyl]-1,2,3,5,6,7-hexahydropyrrolizin-3-yl]methyl 4-[2-(2,6-dioxo-3-piperidyl)-1-oxo-isoindolin-5-yl]piperazine-1-carboxylate]", "DC50": "< 5100"}
{"smiles": "CCc1cccc2cc(O)cc(-c3ncc4c(N5CC6CCC(C5)N6)nc(OC[C@@]56CCCN5[C@H](COC(=O)N5CCN(c7cccc8c7CN(C7CCC(=O)NC7=O)C8=O)CC5)CC6)nc4c3F)c12", "note": "(stereo partly drawn) [Compound 60, [(3S,8S)-8-[[4-(3,8-diazabicyclo[3.2.1]octan-3-yl)-7-(8-ethyl-3-hydroxy-1-naphthyl)-8-fluoro-pyrido[4,3-d]pyrimidin-2-yl]oxymethyl]-1,2,3,5,6,7-hexahydropyrrolizin-3-yl]methyl 4-[2-(2,6-dioxo-3-piperidyl)-1-oxo-isoindolin-4-yl]piperazine-1-carboxylate]", "DC50": "100 to 5250"}
{"smiles": "CCc1cccc2cc(O)cc(-c3ncc4c(N5CC6CCC(C5)N6)nc(OC[C@]56CCCN5[C@@H](COC(=O)N5CCN(c7cccc8c7CN(C7CCC(=O)NC7=O)C8=O)CC5)CC6)nc4c3F)c12", "note": "(stereo partly drawn) [Compound 61, [(3R,8R)-8-[[4-(3,8-diazabicyclo[3.2.1]octan-3-yl)-7-(8-ethyl-3-hydroxy-1-naphthyl)-8-fluoro-pyrido[4,3-d]pyrimidin-2-yl]oxymethyl]-1,2,3,5,6,7-hexahydropyrrolizin-3-yl]methyl 4-[2-(2,6-dioxo-3-piperidyl)-1-oxo-isoindolin-4-yl]piperazine-1-carboxylate]", "DC50": "250 to 1000"}
{"smiles": "CCc1cccc2cc(O)cc(-c3ncc4c(N5CC6CCC(C5)N6)nc(OC[C@@]56CCCN5[C@H](COC(=O)N5CCN(c7ccc8c(c7)C(=O)N(C7CCC(=O)NC7=O)C8=O)CC5)CC6)nc4c3F)c12", "note": "(stereo partly drawn) [Compound 62, [(3S,8S)-8-[[4-(3,8-diazabicyclo[3.2.1]octan-3-yl)-7-(8-ethyl-3-hydroxy-1-naphthyl)-8-fluoro-pyrido[4,3-d]pyrimidin-2-yl]oxymethyl]-1,2,3,5,6,7-hexahydropyrrolizin-3-yl]methyl4-[2-(2,6-dioxo-3-piperidyl)-1,3-dioxo-isoindolin-5-yl]piperazine-1-carboxylate]", "DC50": "< 5100"}
{"smiles": "CCc1cccc2cc(O)cc(-c3ncc4c(N5CC6CCC(C5)N6)nc(OC[C@]56CCCN5[C@@H](COC(=O)N5CCN(c7ccc8c(c7)C(=O)N(C7CCC(=O)NC7=O)C8=O)CC5)CC6)nc4c3F)c12", "note": "(stereo partly drawn) [Compound 63, [(3R,8R)-8-[[4-(3,8-diazabicyclo[3.2.1]octan-3-yl)-7-(8-ethyl-3-hydroxy-1-naphthyl)-8-fluoro-pyrido[4,3-d]pyrimidin-2-yl]oxymethyl]-1,2,3,5,6,7-hexahydropyrrolizin-3-yl]methyl4-[2-(2,6-dioxo-3-piperidyl)-1,3-dioxo-isoindolin-5-yl]piperazine-1-carboxylate]", "DC50": "250 to 1000"}
{"smiles": "CCc1cccc2cc(O)cc(-c3ncc4c(N5CC6CCC(C5)N6)nc(OC[C@@]56CCCN5[C@H](COC(=O)N5CCN(c7cccc8c7C(=O)N(C7CCC(=O)NC7=O)C8=O)CC5)CC6)nc4c3F)c12", "note": "(stereo partly drawn) [Compound 64, [(3S,8S)-8-[[4-(3,8-diazabicyclo[3.2.1]octan-3-yl)-7-(8-ethyl-3-hydroxy-1-naphthyl)-8-fluoro-pyrido[4,3-d]pyrimidin-2-yl]oxymethyl]-1,2,3,5,6,7-hexahydropyrrolizin-3-yl]methyl 4-[2-(2,6-dioxo-3-piperidyl)-1,3-dioxo-isoindolin-4-yl]piperazine-1-carboxylate]", "DC50": "100 to 5250"}
{"smiles": "CCc1cccc2cc(O)cc(-c3ncc4c(N5CC6CCC(C5)N6)nc(OC[C@]56CCCN5[C@@H](COC(=O)N5CCN(c7cccc8c7C(=O)N(C7CCC(=O)NC7=O)C8=O)CC5)CC6)nc4c3F)c12", "note": "(stereo partly drawn) [Compound 65, [(3R,8R)-8-[[4-(3,8-diazabicyclo[3.2.1]octan-3-yl)-7-(8-ethyl-3-hydroxy-1-naphthyl)-8-fluoro-pyrido[4,3-d]pyrimidin-2-yl]oxymethyl]-1,2,3,5,6,7-hexahydropyrrolizin-3-yl]methyl 4-[2-(2,6-dioxo-3-piperidyl)-1,3-dioxo-isoindolin-4-yl]piperazine-1-carboxylate]", "DC50": "250 to 1000"}
